Reference: patent publication US20110288036A1, “Methods for Treating or Preventing Vascular Graft Failure” (priority 2010, published 2011)

What was measured:
PRAK = molecular target: T1, PRAK (Homo sapiens, UniProt Q8IW41); test: PRAK radiometric kinase assay; assay type: biochemical; details: peptide 100 μM
T1 construct: purchased Millipore (KinaseProfiler service)
Source text: (§1) A commercial radiometric assay service was used to test the specificity and potency of MMI-0100 ([…]; SEQ ID NO: 1) by measuring its half maximal inhibitory concentrations (IC50). This quantitative assay measures how much MK2 inhibitor (MMI-0100; […] (SEQ ID NO: 1)) is needed to inhibit 50% of a given biological process or component of a process (i.e., an enzyme, cell, or cell receptor). Specifically, in these assays, a positively charged substrate is phosphorylated with a radiolabeled phosphate group from an ATP if the kinase is not inhibited by an inhibitor peptide. The positively charged substrate then is attracted to a negatively charged filter membrane, quantified with a scintillation counter, and compared to a 100% activity control. ATP concentrations within 15 μM of the apparent Km for ATP were chosen since an ATP concentration near the Km may allow for the kinases to have the same relative amount of phosphorylation activity. The individual conditions for each radiometric assay are as follows. […]
(§2) IC50 values for inhibitor peptides were determined using Millipore's IC50 Profiler Express service. […]

P38MAPK = test: p38 MAPK radiometric kinase assay; assay type: biochemical; details: peptide 100 μM
Source text: as §1, with “control.” for “control. ATP concentrations within 15 μM of the apparent Km for ATP were chosen since an ATP concentration near the Km may allow for the kinases to have the same relative amount of phosphorylation activity. The individual conditions for each radiometric assay are as follows.”
For the p38 MAPK (p38 Mitogen-Activated Protein Kinase) radiometric assay, 5-10 mU of p38 MAPK was incubated with 25 mM Tris pH 7.5, 0.02 mM EGTA, 0.33 mg/mL myelin basic protein (a substrate for p38 MAPK), 10 mM MgAcetate, and 10 μM of [y-^33P-ATP] in the final reaction volume of 25 μl. […] The washed P30 filtermat was dried and its radioactivity was measured by scintillation counter.
as §2

MKK3 = MKK3 (Homo sapiens, UniProt P46734); test: MKK3 kinase activity (data not shown); assay type: biochemical; details: at concentration inhibiting greater than 95% of MK2 activity
Sequence of MKK3 (P46734 whole entry, species assumed): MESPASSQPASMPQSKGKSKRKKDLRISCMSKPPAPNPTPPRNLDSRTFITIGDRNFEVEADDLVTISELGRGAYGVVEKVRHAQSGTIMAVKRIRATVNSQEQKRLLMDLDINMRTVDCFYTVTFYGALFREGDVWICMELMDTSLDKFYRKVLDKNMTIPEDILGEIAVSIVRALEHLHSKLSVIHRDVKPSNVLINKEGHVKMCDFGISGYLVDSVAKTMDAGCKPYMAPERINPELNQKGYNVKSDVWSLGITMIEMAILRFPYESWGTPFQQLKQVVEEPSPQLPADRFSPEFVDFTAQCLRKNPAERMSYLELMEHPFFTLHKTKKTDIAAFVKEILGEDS
Source text: as §1, with “activity.” for “activity. The individual conditions for each radiometric assay are as follows.”
as §2
In order to determine the level of specificity for inhibiting MK2, the effect of MMI-0100 ([…]; SEQ ID NO: 1) on other kinases within the MAPK family and within the p38MAPK pathway was evaluated at concentrations of MMI-0100 ([…]; SEQ ID NO: 1) that inhibit greater than 95% of MK2 activity in vitro. […]

[1] = system: mouse lung endothelial cells (MLEC); test: Murine endothelial cell apoptosis, annexin V flow cytometry; assay type: cell-based; details: 24 hours; any dose
Method: The apoptotic effect of MMI-0100 ([…]; SEQ ID NO: 1) on mouse lung endothelial cells (MLEC) was measured at 24 hours after MMI-0100 ([…]; SEQ ID NO: 1) treatment. MLEC were removed from the tissue culture plate by trypsin, and re-suspended at a concentration of 1.0×10^6 cells/ml. Apoptotic cells were detected by AlexaFluor® 488 annexin V/Dead Cell Apoptosis Kit (Invitrogen) using flow cytometry sorting analysis.

T1 sequence (Q8IW41 whole entry, species assumed): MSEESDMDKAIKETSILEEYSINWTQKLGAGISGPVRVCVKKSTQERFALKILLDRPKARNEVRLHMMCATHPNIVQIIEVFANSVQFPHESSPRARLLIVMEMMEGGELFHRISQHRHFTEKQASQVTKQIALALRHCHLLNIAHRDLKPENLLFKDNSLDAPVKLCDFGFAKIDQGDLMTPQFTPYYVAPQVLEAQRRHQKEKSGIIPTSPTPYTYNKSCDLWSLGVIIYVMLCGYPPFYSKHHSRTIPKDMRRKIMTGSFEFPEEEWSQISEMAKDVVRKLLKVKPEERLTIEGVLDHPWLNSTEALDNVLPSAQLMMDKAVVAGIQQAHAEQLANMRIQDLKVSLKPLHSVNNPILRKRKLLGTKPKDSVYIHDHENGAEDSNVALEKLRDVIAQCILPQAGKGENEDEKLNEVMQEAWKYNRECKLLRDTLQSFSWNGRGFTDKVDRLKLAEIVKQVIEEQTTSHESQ

YARAAARQARAKALARQLGVAA [MMI-0100]
Percent Activity, PRAK (PRAK): 100%
Percent Activity, P38MAPK (P38MAPK): 60%
MKK3 activity (MKK3): no reduction
EC apoptosis [1]: did not induce EC apoptosis at any dose
